Values joined by “and” are separate entries in the source; they are usually repeats but may differ in a detail not shown here. Equal entries are not always repeated. “Also recorded” adds a separate entry of the source. Where two headings read alike, the source gives them in different places. Marks after values point to notes of the source that are not given here.
Tests used:
[1] = test system: anti-rhGAA IgG antibodies; assay: Anti-rhGAA IgG antibody titers over time (ELISA, confirmed by radioimmunoprecipitation) in Pompe disease patients on ERT with TLD-MTX or on ERT monotherapy (comparators); type: in vivo, human; conditions: for Percent of patients in HSAT group: HSAT: titers >=51,200 on >=2 occasions at or beyond 6 months on ERT; for Percent of patients who developed HSAT or SIT: comparator group n=37, TLD-MTX group n=14; for Percent of patients in SIT group: SIT: titers >=12,800 and <51,200 within first year of ERT; for Overall immune tolerance outcome versus historical data: cohort conclusion in words; for Development of HSAT: methotrexate recipients: Example 2 (n=17), Example 3 (n=14, by data cutoff Jun. 16, 2017)
Method: Methotrexate at 0.4 mg/kg body weight was administered subcutaneously (or orally if subcutaneous administration was not possible) on three consecutive days/MTX cycle/infusion; with the first three ERT infusions (i.e., on Days 0, 14, and 28 for patients infused EOW) for a total of 3 cycles. On the day of ERT infusion, methotrexate was administered 15 minutes (if subcutaneous) or 1 hour (if oral) before infusion initiation and again on the following 2 days. To exemplify the schedule, in a patient receiving ERT infusion EOW, methotrexate was administered on Days 0, 1, and 2 (first cycle); Days 14, 15, and 16 (second cycle), and Days 28, 29, and 30 (third cycle). As stated earlier, the dose and frequency of ERT could be increased at the discretion of the treating physician, based on patients' clinical and IAR status, in which case methotrexate cycles were adjusted accordingly (see FIG. 2 for details).
Anti-rhGAA IgG antibodies were determined by Sanofi Genzyme (Framingham, MA, USA) using enzyme-linked immunosorbent assays and confirmed using radioimmunoprecipitation as described previously (Kishnani et al. (2006) J. Pediatr. 149:89-97). Antibody analyses were recommended to be performed at Days −1, 28, 56, 84, 112, 140, 168, 196, 224, 252, 280, 308, 336, and 364.
rhGAA IgG titers were determined over time. Patients were classified into HSAT (≥51,200 on ≥2 occasions at or beyond 6 months on ERT), sustained intermediate titer (SIT) (≥12,800 and <51,200 within the first year of ERT), and low titer (LT; ≤6,400 within the first year of ERT) groups based on the longitudinal anti-rhGAA IgG titers. […] Medians and ranges were determined for baseline, peak, and last titers, although our focus was on longitudinal titers through time because sustained titers affect clinical response.
The comparators received rhGAA alone. The GAA variant data and age at ERT initiation were compared with our cohort of TLD-MTX recipients. Immune responses over time were classified into HSAT, SIT, and LT as defined above, and time to seroconversion, peak titers, titers at Weeks 12, 24, and 52 were compared with our present cohort of TLD-MTX recipients.

[2] = test system: anti-rhGAA IgG antibodies; conditions: 10 LOPD patients, 4 years, annual titers; cited from earlier work
[3] = test system: anti-rhGAA IgG antibodies; conditions: LOTS, cited from earlier work
[4] = test system: anti-rhGAA IgG antibodies; conditions: cited from earlier work
anti-rhGAA IgG response = conditions: methotrexate alone, transient low dose co-initiated with ERT, Joseph et al. (2008); cited from earlier work
[5] = Safety: hematologic and biochemical analyses (ANC, AST, ALT), adverse events and infections in methotrexate recipients; type: in vivo, human; conditions: for Neutropenia (ANC <750 cells/mm^3), percent of patients: transient; for ALT > 3x baseline (Yes/No) / ANC < 750 cells/mm^3 (Yes/No) / AST > 3x baseline (Yes/No): first 6 weeks on alglucosidase alfa
Method: On Days −1 (baseline), 13, 28, 42, 56, 84, 168, 252, 336, and 364, blood samples were recommended to be collected for hematologic and biochemical analyses for patients receiving ERT EOW. The sampling schedule was modified for patients receiving ERT weekly (FIG. 2). Complete and differential blood counts and platelets were evaluated and monitored for platelet counts <50,000/mm^3, ANC <750/mm^3, and treatment-resistant infections. Biochemical analyses monitored alanine aminotransferase (ALT), aspartate aminotransferase (AST), creatine kinase (CK), and CK-MB levels. Post-treatment increases in AST and ALT levels were noted if exceeding three times their respective baseline levels.

[6] = LT group, IOPD, seropositive titers <100 deemed 50
[7] = individual atypical IOPD patients
[8] = individual SIT patients IOPD13 and IOPD14 (patient named in the cell), listed as TLD-MTX

Compound: Alglucosidase alfa [ERT monotherapy]
- Range of peak titers ([1]; HSAT comparators (5/37)): 51,200-409,600
- Group median last titer ([1]; HSAT group of 37 CRIM-positive IOPD comparators, median time on ERT Week 94): 102,400
- Median peak titers ([1]; HSAT group, IOPD): 204,800 (range, 51,200-409,600)
- Median titers (Week 12) ([1]; HSAT group, IOPD): 25,600
- Median titers (Week 24) ([1]; HSAT group, IOPD): 25,600
- Median titers (Week 52) ([1]; HSAT group, IOPD): 51,200
- Seroconversion week (median time to seroconversion) ([1]; HSAT group, IOPD): ≤ 4 weeks
- Percent of patients in HSAT group ([1]; IOPD): 13.5%
- Percent of patients who developed HSAT or SIT ([1]; IOPD): 32.4%
- Range of peak titers ([1]; LT comparators (23/37 as printed)): 200-12,800
- Group median last titer ([1]; LT group of 37 CRIM-positive IOPD comparators, median time on ERT Week 130): 400
- Median peak titers ([1]; LT group, IOPD): 800 (range, 200-12,800)
- Median titers (Week 12) ([1]; LT group, IOPD): 400
- Median titers (Week 24) ([1]; LT group, IOPD): 400
- Seroconversion week (median time to seroconversion) ([1]; LT group, IOPD): 8 weeks
- Median titers (Week 52) [1, 6]: 200
- Percent of patients in LT group ([1]; LT: titers <=6,400 within first year of ERT, IOPD): 67.6%
- Range of peak titers ([1]; SIT (IT) comparators (7/37)): 12,800-51,000
- Group median last titer ([1]; SIT group of 37 CRIM-positive IOPD comparators, median time on ERT Week 104): 1,600
- Median peak titers ([1]; SIT group, IOPD): 25,600 (range, 12,800-51,200)
- Median titers (Week 12) ([1]; SIT group, IOPD): 12,800
- Median titers (Week 24) ([1]; SIT group, IOPD): 12,800
- Median titers (Week 52) ([1]; SIT group, IOPD): 3,200
- Seroconversion week (median time to seroconversion) ([1]; SIT group, IOPD): 4 weeks
- Percent of patients in SIT group ([1]; IOPD): 18.9%
- Highest antibody titer of any patient [2]: ≤ 25,600
- Geometric mean titer, maximum ([3]; LOPD, Week 44): 2,925
- Geometric mean titer, last ([3]; LOPD, Week 78): 1,607
- Median last titer ([3]; LOPD, Week 78): 1,600
- Median peak titer ([3]; LOPD, median time 12 weeks of alglucosidase alfa therapy): 6,400
- Peak IgG titer quartile ([3]; first quartile (n=17)): 200-1,600
- Peak IgG titer quartile ([3]; fourth quartile (n=14)): 25,600-819,200
- Peak IgG titer quartile ([3]; second quartile (n=12)): 3,200
- Peak IgG titer quartile ([3]; third quartile (n=16)): 6,400-12,800
- Percent of patients with high antibody titers ([4]; CRIM-positive IOPD, 9 of 23, Banugaria et al. (2011)): 39%
- Percent of patients developing HSAT ([4]; CRIM-positive patients with IOPD): ~40%
- Percent of patients developing HSAT ([4]; patients with LOPD): 10%

Compound: CN(Cc1cnc2nc(N)nc(N)c2n1)c1ccc(C(=O)N[C@@H](CCC(=O)O)C(=O)O)cc1 [methotrexate]
- Effect on anti-rhGAA IgG response (anti-rhGAA IgG response): sustainably reduced anti-rhGAA IgG response
- Neutropenia (ANC <750 cells/mm^3), percent of patients ([5]; 2 of 9 IOPD patients with ANC data (Example 2)): 22%
- Neutropenia (ANC <750 cells/mm^3), percent of patients ([5]; 2 of 13 IOPD patients with ANC data (Example 3)): 15.4%
- ALT > 3x baseline (Yes/No) ([5]; individual IOPD patients): Yes (3×) and No (5×)
- ANC < 750 cells/mm^3 (Yes/No) ([5]; individual IOPD patients): Yes (2×) and No (7×)
- AST > 3x baseline (Yes/No) ([5]; individual IOPD patients): No (7×) and Yes
- ALT > 3x baseline (Yes/No) ([5]; individual LOPD patients): No
- ANC < 750 cells/mm^3 (Yes/No) ([5]; individual LOPD patients): No
- AST > 3x baseline (Yes/No) ([5]; individual LOPD patients): No
- ALT > 3x baseline (Yes/No) [5, 7]: No
- ANC < 750 cells/mm^3 (Yes/No) [5, 7]: No
- AST > 3x baseline (Yes/No) [5, 7]: No
- Overall tolerability ([5]; methotrexate recipients): tolerated the methotrexate protocol reasonably
- Serious AEs related to methotrexate ([5]; methotrexate recipients): No serious AEs were related to methotrexate
- Patients with hospitalizations related to infections around the time of methotrexate administration ([5]; patients with infection data available (Example 3), resolved): Two of nine
- Median last titer ([1]; 17 CRIM-positive IOPD, atypical IOPD and LOPD methotrexate recipients (Example 2), median ~68 weeks on alglucosidase alfa): 100 (range, 0-6400) and 100 (range 0-6400)
- Patients remaining seronegative ([1]; Example 2 cohort of 17 patients): 1 of 17
- Highest observed titer in the study ([1]; Example 2 cohort, IOPD patient (Patient 3) given one methotrexate dose each in cycles 2 and 3): 12,800
- Percent of patients in HSAT group ([1]; IOPD): 0%
- Titer ([1]; IOPD Patient 3, Week 49): 400
- Titer ([1]; IOPD Patient 3, by Week 20): 3200
- Percent of patients who developed HSAT or SIT ([1]; IOPD): 14.2%
- Median peak titers ([1]; LT group, IOPD): 3,200
- Median titers (Week 12) ([1]; LT group, IOPD): 1,600
- Median titers (Week 24) ([1]; LT group, IOPD): 600
- Median titers (Week 52) [1, 6]: 250***
- Percent of patients in SIT group ([1]; IOPD): 14.2% (n = 2)
- Overall immune tolerance outcome versus historical data ([1]; listed as TLD-MTX): successfully blunted the immune response overall
- Overall immune tolerance outcome versus historical data ([1]; listed as low-dose methotrexate): successfully induced immune tolerance
- Peak antibody titer since immune tolerance induction ([1]; individual IOPD patients (one line per patient), >6 months follow-up, methotrexate 0.4 mg/kg, 3 cycles, with alglucosidase alfa): 3,200 (3×) and <100 and 200 and 800 (3×) and 6,400
- Peak antibody titer since immune tolerance induction ([1]; individual IOPD patients (one line per patient), >6 months follow-up, methotrexate 0.4 mg/kg, 3 cycles, with alglucosidase alfa, single methotrexate dose in cycles 2 and 3): 12,800*
- Last antibody titer ([1]; individual IOPD patients (one line per patient), last titer at 42-122 weeks on ERT): 0 (4×) and 400 and <100 and 100 (2×) and 6,400
- Last antibody titer ([1]; individual IOPD patients (one line per patient), last titer at 42-122 weeks on ERT, single methotrexate dose in cycles 2 and 3): 400
- Peak antibody titer ([1]; individual IOPD patients IOPD1-IOPD14 (one line per patient) on TLD-MTX protocol, >6 months follow-up): 12,800* and 3,200 (4×) and 200 (2×) and 800 (3×) and 6,400 and 51,200** and 25,600*** and <100
- Last antibody titer ([1]; individual IOPD patients IOPD1-IOPD14 on TLD-MTX protocol, last titer at 32-122 weeks on ERT): 400 (3×) and 0 (4×) and <100 and 100 (2×) and 6,400 and 200 and 12,800 and 12.800
- Peak antibody titer since immune tolerance induction ([1]; individual LOPD patients (one line per patient), >6 months follow-up): 1,600 and 800
- Last antibody titer ([1]; individual LOPD patients, last titer at 63 and 27 weeks on ERT): 0 and 400
- Titer (Week 52) ([1]; individual SIT patient IOPD13): IOPD13: 12,800
- Peak titer [1, 8]: IOPD13: 51,200;; also recorded: IOPD14: 12,800
- Titer (Week 12) [1, 8]: IOPD13: 12,800;; also recorded: IOPD14: 25,600
- Titer (Week 24) [1, 8]: IOPD13: 12,800;; also recorded: IOPD14: 12,800
- Peak antibody titer since immune tolerance induction ([1]; individual atypical IOPD patients (one line per patient), >6 months follow-up): 3,200 and Never and <100 and 800 and 200
- Last antibody titer ([1]; individual atypical IOPD patients, last titer at 58-145 weeks on ERT): 400 and 0 and <100 and 200 (2×)
- Peak antibody titer, median ([1]; median of 14 IOPD patients on TLD-MTX protocol): 3,200
- Last antibody titer, median ([1]; median of 14 IOPD patients on TLD-MTX protocol, median time on ERT ~71 weeks): 150 (range, 0-12,800)
- Development of HSAT [1]: No patients who received methotrexate developed HSAT; also recorded: No methotrexate recipients developed HSAT
- Development of HSAT ([1]; listed as TLD-MTX): No patients who received TLD-MTX developed HSAT
- Maximal titer ([1]; one methotrexate-treated LOPD patient, Weeks 16 and 20): 1,600
- Titers remaining (seropositive on screening assay, below limit of titer measurement) ([1]; patient IOPD2): < 100
- Titer ([1]; patient IOPD13, Week 7 only): 51,200
- Peak titer after the cutoff date (HSAT developed) ([1]; patient IOPD13, Week 76): 102,400
- Titer ([1]; patient IOPD13, Weeks 12 and 37): 25,600
- Titer ([1]; patient IOPD13, Weeks 14, 17, 23, 31 and 44): 12,800
- Titer ([1]; patient IOPD14, Week 28 only): 25,600
- Last titer after the cutoff for data collection ([1]; patient IOPD14, Week 36): 6,400
- Titer ([1]; patient IOPD14, Weeks 12, 16, 24 and 32): 12,800
- Titer ([1]; same LOPD patient, Week 63): 0
- Titer ([1]; same LOPD patient, Weeks 32-55): 100
- Titer ([1]; the other LOPD patient, Week 27): 400
- Maximal titer ([1]; the other methotrexate-treated LOPD patient, Weeks 9-16): 800
